The results in this text go back to US5457092A, “Methods of promoting bone growth in mammals comprising administration of modified parathyroid hormone” (Gesellschaft fur Biotechnologische Forschung mbH (GBF), priority 1987, dated 1995).

Assay [1] concerns chondrocytes isolated from the sterna of 16-day-old chicken embryos. Description: Incorporation of 3H-methylthymidine into total DNA of chicken embryo chondrocytes (Examples 1-3). The class given is cell-based. The text has this: FIG. 1 is a graph showing the stimulation of chondrocyte DNA synthesis by the addition of PTH and PTH fragments; expressed as the ratio of the rate of incorporation of ^3 H-methylthymidine into the total DNA of the induced cultures to that of the untreated control cultures.
FIGS. 2-6 are graphs showing the dosage/effect curves for the mitogenic activity of PTH and PTH fragments;
FIG. 1: In order to determine the incorporation of ^3 H-methylthymidine into total DNA the cells were cultivated on microtiter plates in M199 medium at a concentration of foetal calf serum (FCS) of less than 0.5% (by volume). The cell density of the chondrocytes that reacted to the addition of PTH with an increase in the incorporation of ^3 H-methylthymidine into the total DNA was from 1250 to 6000 cells/microtitre well (diameter 6 mm) at the time of plating-out. […] The incorporation of ^3 H-methylthymidine into the total DNA was determined as follows. After removing the radioactive medium, the adherent growing chondrocytes were washed with PBS and lysed in the microtitre wells. The total DNA was then precipitated under acid conditions at low temperature and transferred onto filter papers using a semi-automatic harvesting device. The rate of incorporation into total DNA could then be determined; cf. FIG. 1. […]

For assay [2] the test system is unchanged. Briefly: Determination of cell number of chondrocyte cultures. Type of assay: cell-based. The settings on record: induced for 24 hours; non-induced 41,000 cells/ml. The method, then:
FIG. 7 is a comparative graph showing cell number after incubation of the non-induced cultures compared to cultures induced with hPTH (28-48) for 24 hours.
FIG. 1: In order to determine the incorporation of ^3 H-methylthymidine into total DNA the cells were cultivated on microtiter plates in M199 medium at a concentration of foetal calf serum (FCS) of less than 0.5% (by volume). The cell density of the chondrocytes that reacted to the addition of PTH with an increase in the incorporation of ^3 H-methylthymidine into the total DNA was from 1250 to 6000 cells/microtitre well (diameter 6 mm) at the time of plating-out. […] The incorporation of ^3 H-methylthymidine into the total DNA was determined as follows. After removing the radioactive medium, the adherent growing chondrocytes were washed with PBS and lysed in the microtitre wells. The total DNA was then precipitated under acid conditions at low temperature and transferred onto filter papers using a semi-automatic harvesting device. The rate of incorporation into total DNA could then be determined; cf. FIG. 1. […] The concentration for semi-maximum stimulation was from 9 to 15 nM for bPTH(1-84) and from 50 to 75 nM for the PTH fragments bPTH(1-34) and bPTH(3-34). In contrast, the PTH fragment hPTH(28-48), which, according to Adv. Protein Chemistry, 35 (1982) 323 ff.

The subject of assay [3] is chondrocytes from sterna of 16-day-old embryonic chicks. Briefly: Stimulation of DNA synthesis in chondrocytes by PTH fragments (Table 1). The class given is cell-based, chick. The following applies: for [^3 H]thymidine incorporation: 4 h, control 324 ± 18; for E/C: stimulated / non-induced control cells. The method, then:
Chondrocytes were isolated from sterna of 16-day-old embryonic chicks according to J. Biol. Chem., 261 (1986) 7997-8001 (10; Yasui et al.) with some modifications. Collagenase was dissolved in Hanks' balanced salt solution (0.4 mM Na2 HPO4, 140 mN NaCl, 5.3 mM KCl, 0.4 mM MgSO4, 1.3 mM CaCl2, 0.4 mM KH2 PO4, 0.5 mM MglC2, 5 mM glucose, 0.05% gentamicin) at a concentration of 286 units/ml. Sterna were treated repeatedly for 30 min with collagenase solution at 37° C. Cells first released by this procedure were discarded because of their very poor responsiveness towards PTH. The collagenase treatment was subsequently repeated leading to a highly homogenous cell population of chondrocytes. The cells obtained by a second collagenase treatment were collected by centrifugation (1000 rpm, 10 min), washed twice with medium (Dulbecco's modified Eagle's medium, GIBCO, supplemented with NaHCO3 (45 mM), glutamine (2 mM), penicillin G/streptomycin (65 mg/1 and 100 mg/l, respectively), Hepes (10 mM, pH 7.2), and FCS (10% v/v) and counted.
The DNA synthesis rate was assayed in monolayer culture by the incorporation of ]^3 H]thymidine into perchloric acid-precipitable material. […] After 17 h, the medium was replaced by 200 μl of serum-free medium. After 4 days, chondrocytes were incubated for 4 h with the appropriate effector and 1μ Ci of [^3 H]thymidine. Subsequently, medium was removed and the cells were washed twice with 200 μl of phosphate-buffered saline (PBS: 137 mM NaCl, 2.7 mN KCl, 1.5 mM KH2 PO4, 0.8 mN Na2 HPO4, pH 7.0). Then cells were lysed by 100 μl of 2% (v/v) Nonidet P- 40 and 2% (w/v) sodium dodecyl sulfate treatment and the perchloric acid-insoluble material was precipitated by adding an equal volume of ice-cold 2% (w/v) perchloric acid in the presence of 1% herring sperm DNA as carrier. After storage for 10 min at -20° C., the precipitated material of each well was transferred to glass fiber filters with a Scatron--As semiautomatic cell harvester. Filters were dried at 80° C. for 20 min, transferred into scintillation vials, and 2 ml of scintillation mixture (scintillator 299; United Technology Pachard) were added. Radioactivity of the samples was determined with a β counter (Minimax; United Technology Pachard). Each test consisted of 5 up to 10 identically treated wells and was repeated at least twice with freshly prepared chondrocytes.
The incorporation of [^3 H]thymidine by non-induced control cells and by stimulated cells is shown by C and E, respectively. The results shown mean ±S.E. for n parallel cell cultures.

Turning to “hPTH(28-48): mid-regional PTH fragment 28-48, human source (LQDVHNFVALGAPLAPRDAGS; Parathyroid hormone; UniProt P01270 59-79, looked up, fragment)”, the EC50 in assay [1] (3H-methylthymidine incorporation into total DNA, read-out: concentration for semi-maximum stimulation) was determined as 349 nM. Further, in assay [1] (ratio induced / untreated control cultures, depending on concentration), the “increase in the incorporation of 3H-methylthymidine into total DNA by a factor” value turned out to be 6. Besides, in assay [2], the total cell number was 63,000 cells/ml.

As to “hPTH(25-39): PTH fragment 25-39, human source (RKKLQDVHNFVALGA; Parathyroid hormone; UniProt P01270 56-70, looked up, fragment)”, the “[^3 H]thymidine incorporation” value in assay [3] (6.1 × 10^-4 mol/l) was 542 ± 71 cpm; in assay [3] (6.1 × 10^-5 mol/l), 655 ± 147 cpm; in assay [3] (6.1 × 10^-6 mol/l), 517 ± 65 cpm; in assay [3] (6.1 × 10^-7 mol/l) it was 418 ± 41 cpm; in assay [3] (6.1 × 10^-8 mol/l) it was 452 ± 56 cpm. In addition, the E/C in assay [3] (6.1 × 10^-4 mol/l) came to 1.67; in assay [3] (6.1 × 10^-5 mol/l), 2.02; in assay [3] (6.1 × 10^-6 mol/l) it was 1.60; in assay [3] (6.1 × 10^-7 mol/l) it was 1.29; in assay [3] (6.1 × 10^-8 mol/l), 1.40.
